From patent US8481523B2, “Biocide composition comprising pyrithione and pyrrole derivatives” (Arch Chemicals, Inc., priority 2006, dated 2013)
Entries after “also recorded” stand apart in the source; their conditions may differ.

System: barnacles
Assay: Paint efficacy testing: coated fiberglass rods suspended in the ocean, number of barnacles counted monthly
Assay type: in vivo
Details: paint formulations on rods in the ocean, Beaufort, N.C. coast, 2004
Protocol: A series of nine paint formulations containing 4-bromo-2-(4-chlorophenyl)-5-(trifluoromethyl)-1H-pyrrole-3-carbonitrile (referred to in below table as Pyrrole) and zinc pyrithione (ZPT) were tested by Duke University off the Beaufort, N.C. coast in 2004 for their antifouling effectiveness against barnacles and other fouling organisms. The formulations were created in the laboratory by the addition of various amounts of biocides to a resin base-formulation (vinyl resin/wood rosin with Zn oxide filler). Formulations include 4-bromo-2-(4-chlorophenyl)-5-(trifluoromethyl)-1H-pyrrole-3-carbonitrile alone and in combination with ZPT. A solvent based zinc oxide coating was used as a control. Unprimed fiberglass rods (8 mm diameter×11 cm length) were dip-coated with each formulation (5 rods/formulation) and suspended from a test rack in the ocean (one-meter below the surface). Rods were evaluated each month for number of barnacles and bryozoans. The most promising results came from the formulations in which 4-bromo-2-(4-chlorophenyl)-5-(trifluoromethyl)-1H-pyrrole-3-carbonitrile was blended with ZPT (See Table 1 below).

SMILES: N#Cc1c(-c2ccc(Cl)cc2)[nH]c(C(F)(F)F)c1Br [4-bromo-2-(4-chlorophenyl)-5-(trifluoromethyl)-1H-pyrrole-3-carbonitrile]
- antifouling effectiveness against barnacles and other fouling organisms (in words): effective antifouling agent for hard fouling organisms such as barnacles; also recorded: performs better with ZPT as a co-biocide than it does alone
